Active and inactive are the calls of the source. The rule behind the calls is not given here.
Legend:
Oryctolagus cuniculus [1] = assay: Toxicity in hyperlipidemic New Zealand Oryctolagus cuniculus (rabbit) assessed as blood urea nitrogen level at 5 mg/kg/day, po for 2 months (reference value: 7.25 +/- 1.46 mmol/l); assay type: organism-based; design: route oral; conditions: in vivo
Oryctolagus cuniculus [2] = assay: Antihyperlipidemic activity in high fat-high cholesterol fed New Zealand Oryctolagus cuniculus (rabbit) assessed as high-density lipoprotein-cholesterol level in blood at 10 mg/kg, po for 40 days (reference value: 0.69 +/- 0.02 mmol/l); assay type: functional
Oryctolagus cuniculus [3] = assay: Toxicity in hyperlipidemic New Zealand Oryctolagus cuniculus (rabbit) assessed as effect on spleen coefficient at 5 to 15 mg/kg/day, po for 2 months; assay type: organism-based; design: route oral; conditions: in vivo
Oryctolagus cuniculus [4] = assay: Toxicity in hyperlipidemic New Zealand Oryctolagus cuniculus (rabbit) assessed as alanine aminotransferase level at 5 mg/kg/day, po for 2 months (reference value: 92.14 +/- 14.3 U/l); assay type: organism-based; design: route oral; conditions: in vivo
Oryctolagus cuniculus [5] = assay: Toxicity in hyperlipidemic New Zealand Oryctolagus cuniculus (rabbit) assessed as total bilirubin level at 10 mg/kg/day, po for 2 months (reference value: 28.45 +/- 11.55 Umol/l); assay type: organism-based; design: route oral; conditions: in vivo
Oryctolagus cuniculus [6] = assay: Toxicity in hyperlipidemic New Zealand Oryctolagus cuniculus (rabbit) assessed as morbidity at 5 to 15 mg/kg/day, po for 2 months; assay type: organism-based; design: route oral; conditions: in vivo
Oryctolagus cuniculus [7] = assay: Antihyperlipidemic activity in high fat-high cholesterol fed New Zealand Oryctolagus cuniculus (rabbit) assessed as triglyceride level in blood at 10 mg/kg, po for 40 days (reference value: 2.07 +/- 0.33 mmol/l); assay type: functional
Oryctolagus cuniculus [8] = assay: Toxicity in hyperlipidemic New Zealand Oryctolagus cuniculus (rabbit) assessed ashistopathological examination of pancreas at 5 to 15 mg/kg/day, po for 2 months by hematoxylin-eosin staining analysis; assay type: organism-based; design: route oral; conditions: in vivo
Oryctolagus cuniculus [9] = assay: Toxicity in hyperlipidemic New Zealand Oryctolagus cuniculus (rabbit) assessed as alanine aminotransferase level at 15 mg/kg/day, po for 2 months (reference value: 92.14 +/- 14.3 U/l); assay type: organism-based; design: route oral; conditions: in vivo
[10] = biological target: T1, 3-hydroxy-3-methylglutaryl-coenzyme A reductase (Mus musculus) (UniProt Q01237); assay: Inhibition of HMGR isolated from Mus musculus (mouse) liver assessed as change in NADPH at 8 umol/l by HPLC analysis
T1 sequence (whole entry): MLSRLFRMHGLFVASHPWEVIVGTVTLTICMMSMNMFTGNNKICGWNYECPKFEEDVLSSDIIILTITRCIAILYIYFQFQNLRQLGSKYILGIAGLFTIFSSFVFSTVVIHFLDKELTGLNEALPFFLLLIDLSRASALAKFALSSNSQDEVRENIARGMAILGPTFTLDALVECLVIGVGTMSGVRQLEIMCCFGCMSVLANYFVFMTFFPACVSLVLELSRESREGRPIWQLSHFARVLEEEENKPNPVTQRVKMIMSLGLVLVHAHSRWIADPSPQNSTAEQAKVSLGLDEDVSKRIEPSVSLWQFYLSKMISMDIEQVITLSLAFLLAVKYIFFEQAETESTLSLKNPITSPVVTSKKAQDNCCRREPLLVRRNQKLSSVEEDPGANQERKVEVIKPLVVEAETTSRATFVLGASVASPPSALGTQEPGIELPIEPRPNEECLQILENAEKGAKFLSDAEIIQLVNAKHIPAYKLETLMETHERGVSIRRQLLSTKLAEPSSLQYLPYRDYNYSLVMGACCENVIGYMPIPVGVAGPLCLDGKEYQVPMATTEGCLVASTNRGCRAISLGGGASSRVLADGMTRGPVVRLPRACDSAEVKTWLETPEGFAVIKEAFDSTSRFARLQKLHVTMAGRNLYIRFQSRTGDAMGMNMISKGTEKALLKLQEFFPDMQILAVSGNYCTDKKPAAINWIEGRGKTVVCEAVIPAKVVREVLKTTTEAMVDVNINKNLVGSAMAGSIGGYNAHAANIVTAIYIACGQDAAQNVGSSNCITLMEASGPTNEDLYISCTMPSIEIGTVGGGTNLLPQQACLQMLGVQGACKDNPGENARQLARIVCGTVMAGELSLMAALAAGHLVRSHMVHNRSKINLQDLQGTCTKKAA

Oryctolagus cuniculus [11] = assay: Antihyperlipidemic activity in high fat-high cholesterol fed New Zealand Oryctolagus cuniculus (rabbit) assessed as high-density lipoprotein-cholesterol level in blood at 5 mg/kg, po for 40 days (reference value: 0.69 +/- 0.02 mmol/l); assay type: functional
Oryctolagus cuniculus [12] = assay: Antihyperlipidemic activity in high fat-high cholesterol fed New Zealand Oryctolagus cuniculus (rabbit) assessed as low-density lipoprotein-cholesterol level in blood at 5 mg/kg, po for 40 days (reference value: 3.47 +/- 0.44 mmol/l); assay type: functional
Oryctolagus cuniculus [13] = assay: Toxicity in hyperlipidemic New Zealand Oryctolagus cuniculus (rabbit) assessed as histopathological examination of liver at 5 to 15 mg/kg/day, po for 2 months by hematoxylin-eosin staining analysis; assay type: organism-based; design: route oral; conditions: in vivo
Oryctolagus cuniculus [14] = assay: Toxicity in hyperlipidemic New Zealand Oryctolagus cuniculus (rabbit) assessed as effect on pancreas coefficient at 5 to 15 mg/kg/day, po for 2 months; assay type: organism-based; design: route oral; conditions: in vivo
Oryctolagus cuniculus [15] = assay: Toxicity in hyperlipidemic New Zealand Oryctolagus cuniculus (rabbit) assessed as effect on liver coefficient at 5 to 15 mg/kg/day, po for 2 months; assay type: organism-based; design: route oral; conditions: in vivo
Oryctolagus cuniculus [16] = assay: Antihyperlipidemic activity in high fat-high cholesterol fed New Zealand Oryctolagus cuniculus (rabbit) assessed as low-density lipoprotein-cholesterol level in blood at 15 mg/kg, po for 40 days (reference value: 3.47 +/- 0.44 mmol/l); assay type: functional
Oryctolagus cuniculus [17] = assay: Antihyperlipidemic activity in high fat-high cholesterol fed New Zealand Oryctolagus cuniculus (rabbit) assessed as triglyceride level in blood at 15 mg/kg, po for 40 days (reference value: 2.11 +/- 0.43 mmol/l); assay type: functional
Oryctolagus cuniculus [18] = assay: Reduction in number of lipid droplets in liver cells of high fat-high cholesterol fed New Zealand Oryctolagus cuniculus (rabbit) at 10 to 15 mg/kg, po for 2 months by hematoxylin-eosin staining analysis; assay type: functional, organism-based
Oryctolagus cuniculus [19] = assay: Toxicity in hyperlipidemic New Zealand Oryctolagus cuniculus (rabbit) assessed as total bilirubin level at 15 mg/kg/day, po for 2 months (reference value: 28.45 +/- 11.55 Umol/l); assay type: organism-based; design: route oral; conditions: in vivo
Oryctolagus cuniculus [20] = assay: Toxicity in hyperlipidemic New Zealand Oryctolagus cuniculus (rabbit) assessed as histopathological examination of kidney at 5 to 15 mg/kg/day, po for 2 months by hematoxylin-eosin staining analysis; assay type: organism-based; design: route oral; conditions: in vivo
Oryctolagus cuniculus [21] = assay: Toxicity in high fat-high cholesterol fed New Zealand Oryctolagus cuniculus (rabbit) assessed as body weight at 15 mg/kg, po for 40 days; assay type: organism-based; design: dose 15 mg/kg, route oral; conditions: in vivo, 960 h
Oryctolagus cuniculus [22] = assay: Reduction in hepatic steatosis and appearance of inflammatory cell in high fat-high cholesterol fed New Zealand Oryctolagus cuniculus (rabbit) at 5 mg/kg, po for 2 months by hematoxylin-eosin staining analysis; assay type: functional, organism-based; design: dose 5 mg/kg
Oryctolagus cuniculus [23] = assay: Antihyperlipidemic activity in high fat-high cholesterol fed New Zealand Oryctolagus cuniculus (rabbit) assessed as total cholesterol level in blood at 5 mg/kg, po for 40 days (reference value: 8.74 +/- 0.53 mmol/l); assay type: functional

For `CCCCCCCCCCCCCCCCc1c2c(OC)c(OC)ccc2cc2[n+]1CCc1cc3c(cc1-2)OCO3.[Cl-]` [8-HEXADECYL-BERBERINE CHLORIDE], the Activity (Oryctolagus cuniculus [1]) was 5.45 mmol/L, the Activity (Oryctolagus cuniculus [2]) was 720000 nmol/L and the Activity (Oryctolagus cuniculus [3]) was “Non-toxic”. The Activity (Oryctolagus cuniculus [4]) was 82.36 U/L, the Activity (Oryctolagus cuniculus [5]) was 13.3 µmol/L and the Activity (Oryctolagus cuniculus [6]) was “Non-toxic”. For the same compound, the Activity (Oryctolagus cuniculus [7]) was 1.89e+06 nmol/L, the Activity (Oryctolagus cuniculus [8]) was “Non-toxic” and the Activity (Oryctolagus cuniculus [9]) was 64.63 U/L. It also gave an inhibition [10] of 42.7%, an Activity (Oryctolagus cuniculus [11]) of 700000 nmol/L and an Activity (Oryctolagus cuniculus [12]) of 2.67e+06 nmol/L. For the same compound, the Activity (Oryctolagus cuniculus [13]) was “Non-toxic”, the Activity (Oryctolagus cuniculus [14]) was “Non-toxic” and the Activity (Oryctolagus cuniculus [15]) was “Non-toxic”. For the same compound, the Activity (Oryctolagus cuniculus [16]) was 2.05e+06 nmol/L, the Activity (Oryctolagus cuniculus [17]) was 1.58e+06 nmol/L and the inhibition (Oryctolagus cuniculus [18]) was “Active”. For the same compound, the Activity (Oryctolagus cuniculus [19]) was 12.8 µmol/L, the Activity (Oryctolagus cuniculus [20]) was “Non-toxic” and the Activity (Oryctolagus cuniculus [21]) was “Non-toxic”. For the same compound, the inhibition (Oryctolagus cuniculus [22]) was “Active” and the Activity (Oryctolagus cuniculus [23]) was 6.92e+06 nmol/L.
